Experimental data: ChEMBL document CHEMBL2150993, “Substituted thiazoles VII. Synthesis and antitumor activity of certain 2-(substituted amino)-4-phenyl-1,3-thiazole analogs” (2012)

Experiments:
Assay type in all cases: functional
Settings in all cases: at 10 µM
MOLT-4 = test: Growth inhibition of human MOLT4 cells after 48 hrs by cell counting analysis
NCI-H226 = test: Growth inhibition of human NCI-H226 cells after 48 hrs by cell counting analysis
TK-10 = test: Growth inhibition of human TK10 cells after 48 hrs by cell counting analysis
K562 = test: Growth inhibition of human K562 cells after 48 hrs by cell counting analysis
CAKI-1 = test: Growth inhibition of human Caki1 cells after 48 hrs by cell counting analysis
NCI-H522 = test: Growth inhibition of human NCI-H522 cells after 48 hrs by cell counting analysis
SK-MEL-28 = test: Growth inhibition of human SK-MEL-28 cells after 48 hrs by cell counting analysis
PC-3 = test: Growth inhibition of human PC3 cells after 48 hrs by cell counting analysis
SF-539 = test: Growth inhibition of human SF539 cells after 48 hrs by cell counting analysis
[1] = Growth inhibition of human NCI-ADR-RES cells after 48 hrs by cell counting analysis
U-251 = test: Growth inhibition of human U251 cells after 48 hrs by cell counting analysis
HT-29 = test: Growth inhibition of human HT-29 cells after 48 hrs by cell counting analysis
UACC-62 = test: Growth inhibition of human UACC62 cells after 48 hrs by cell counting analysis
M14 = test: Growth inhibition of human M14 cells after 48 hrs by cell counting analysis
EKVX = test: Growth inhibition of human EKVX cells after 48 hrs by cell counting analysis
SK-MEL-2 = test: Growth inhibition of human SK-MEL-2 cells after 48 hrs by cell counting analysis
SK-OV-3 = test: Growth inhibition of human SKOV3 cells after 48 hrs by cell counting analysis
RPMI-8226 = test: Growth inhibition of human RPMI8226 cells after 48 hrs by cell counting analysis
HL-60 = test: Growth inhibition of human HL60 cells after 48 hrs by cell counting analysis
MDA-MB-468 = test: Growth inhibition of human MDA-MB-468 cells after 48 hrs by cell counting analysis
HCT-116 = test: Growth inhibition of human HCT116 cells after 48 hrs by cell counting analysis
Malme-3M = test: Growth inhibition of human MALME-3M cells after 48 hrs by cell counting analysis
SNB-75 = test: Growth inhibition of human SNB75 cells after 48 hrs by cell counting analysis
HCT-15 = test: Growth inhibition of human HCT15 cells after 48 hrs by cell counting analysis
OVCAR-5 = test: Growth inhibition of human OVCAR5 cells after 48 hrs by cell counting analysis
OVCAR-3 = test: Growth inhibition of human OVCAR3 cells after 48 hrs by cell counting analysis
CCRF-CEM = test: Growth inhibition of human CCRF-CEM cells after 48 hrs by cell counting analysis
HCC 2998 = test: Growth inhibition of human HCC2998 cells after 48 hrs by cell counting analysis
OVCAR-8 = test: Growth inhibition of human OVCAR8 cells after 48 hrs by cell counting analysis
T47D = test: Growth inhibition of human T47D cells after 48 hrs by cell counting analysis
HOP-62 = test: Growth inhibition of human HOP62 cells after 48 hrs by cell counting analysis
UACC-257 = test: Growth inhibition of human UACC257 cells after 48 hrs by cell counting analysis
ACHN = test: Growth inhibition of human ACHN cells after 48 hrs by cell counting analysis
SN12C = test: Growth inhibition of human SN12C cells after 48 hrs by cell counting analysis
OVCAR-4 = test: Growth inhibition of human OVCAR4 cells after 48 hrs by cell counting analysis
KM12 = test: Growth inhibition of human KM12 cells after 48 hrs by cell counting analysis
UO-31 = test: Growth inhibition of human UO31 cells after 48 hrs by cell counting analysis
MDA-MB-231 = test: Growth inhibition of human MDA-MB-231 cells after 48 hrs by cell counting analysis
[2] = Growth inhibition of human NCI-322M cells after 48 hrs by cell counting analysis
MCF7 = test: Growth inhibition of human MCF7 cells after 48 hrs by cell counting analysis
NCI-H23 = test: Growth inhibition of human NCI-H23 cells after 48 hrs by cell counting analysis
SW-620 = test: Growth inhibition of human SW620 cells after 48 hrs by cell counting analysis
SNB-19 = test: Growth inhibition of human SNB19 cells after 48 hrs by cell counting analysis
RXF 393 = test: Growth inhibition of human RXF393 cells after 48 hrs by cell counting analysis
HOP-92 = test: Growth inhibition of human HOP92 cells after 48 hrs by cell counting analysis
SR = test: Growth inhibition of human SR cells after 48 hrs by cell counting analysis
LOX IMVI = test: Growth inhibition of human LOXIMVI cells after 48 hrs by cell counting analysis
SF-295 = test: Growth inhibition of human SF295 cells after 48 hrs by cell counting analysis
SK-MEL-5 = test: Growth inhibition of human SK-MEL-5 cells after 48 hrs by cell counting analysis
IGROV-1 = test: Growth inhibition of human IGROV1 cells after 48 hrs by cell counting analysis
SF-268 = test: Growth inhibition of human SF268 cells after 48 hrs by cell counting analysis
A549 = test: Growth inhibition of human A549 cells after 48 hrs by cell counting analysis
BT-549 = test: Growth inhibition of human BT549 cells after 48 hrs by cell counting analysis
MDA-MB-435 = test: Growth inhibition of human MDA-MB-435 cells after 48 hrs by cell counting analysis

SMILES: O=C(CN1CCN(c2ccccc2)CC1)Nc1nc(-c2ccc(Cl)cc2)cs1
- growth inhibition (GI) (MOLT-4): <10%
- growth inhibition (GI) (NCI-H226): <10%
- growth inhibition (GI) (TK-10): <10%
- growth inhibition (GI) (K562): <10%
- growth inhibition (GI) (CAKI-1): <10%
- growth inhibition (GI) (NCI-H522): <10%
- growth inhibition (GI) (SK-MEL-28): <10%
- growth inhibition (GI) (PC-3): 21.1%
- growth inhibition (GI) (SF-539): <10%
- growth inhibition (GI) [1]: <10%
- growth inhibition (GI) (U-251): <10%
- growth inhibition (GI) (HT-29): <10%
- growth inhibition (GI) (UACC-62): 20.3%
- growth inhibition (GI) (M14): <10%
- growth inhibition (GI) (EKVX): <10%
- growth inhibition (GI) (SK-MEL-2): <10%
- growth inhibition (GI) (SK-OV-3): <10%
- growth inhibition (GI) (RPMI-8226): <10%
- growth inhibition (GI) (HL-60): <10%
- growth inhibition (GI) (MDA-MB-468): <10%
- growth inhibition (GI) (HCT-116): 16.4%
- growth inhibition (GI) (Malme-3M): <10%
- growth inhibition (GI) (SNB-75): <10%
- growth inhibition (GI) (HCT-15): <10%
- growth inhibition (GI) (OVCAR-5): <10%
- growth inhibition (GI) (OVCAR-3): <10%
- growth inhibition (GI) (CCRF-CEM): <10%
- growth inhibition (GI) (HCC 2998): <10%
- growth inhibition (GI) (OVCAR-8): <10%
- growth inhibition (GI) (T47D): 19%
- growth inhibition (GI) (HOP-62): 12.7%
- growth inhibition (GI) (UACC-257): <10%
- growth inhibition (GI) (ACHN): <10%
- growth inhibition (GI) (SN12C): <10%
- growth inhibition (GI) (OVCAR-4): <10%
- growth inhibition (GI) (KM12): <10%
- growth inhibition (GI) (UO-31): 34.4%
- growth inhibition (GI) (MDA-MB-231): <10%
- growth inhibition (GI) [2]: <10%
- growth inhibition (GI) (MCF7): <10%
- growth inhibition (GI) (NCI-H23): <10%
- growth inhibition (GI) (SW-620): <10%
- growth inhibition (GI) (SNB-19): <10%
- growth inhibition (GI) (RXF 393): <10%
- growth inhibition (GI) (HOP-92): 60.2%
- growth inhibition (GI) (SR): <10%
- growth inhibition (GI) (LOX IMVI): <10%
- growth inhibition (GI) (SF-295): <10%
- growth inhibition (GI) (SK-MEL-5): 11.7%
- growth inhibition (GI) (IGROV-1): 10.4%
- growth inhibition (GI) (SF-268): <10%
- growth inhibition (GI) (A549): <10%
- growth inhibition (GI) (BT-549): <10%
- growth inhibition (GI) (MDA-MB-435): <10%

SMILES: CN1CCN(CCC(=O)Nc2nc(-c3ccc(Cl)cc3)cs2)CC1
- growth inhibition (GI) (MOLT-4): 51.8%
- growth inhibition (GI) (NCI-H226): 28%
- growth inhibition (GI) (TK-10): 20.2%
- growth inhibition (GI) (K562): 22.4%
- growth inhibition (GI) (CAKI-1): 24.2%
- growth inhibition (GI) (NCI-H522): 31.1%
- growth inhibition (GI) (SK-MEL-28): <10%
- growth inhibition (GI) (PC-3): 15.3%
- growth inhibition (GI) (SF-539): 14.8%
- growth inhibition (GI) [1]: 21.9%
- growth inhibition (GI) (U-251): 16.5%
- growth inhibition (GI) (HT-29): 23.8%
- growth inhibition (GI) (UACC-62): 15%
- growth inhibition (GI) (M14): 15.2%
- growth inhibition (GI) (EKVX): 11.9%
- growth inhibition (GI) (SK-MEL-2): <10%
- growth inhibition (GI) (SK-OV-3): <10%
- growth inhibition (GI) (RPMI-8226): 17.6%
- growth inhibition (GI) (HL-60): 20.6%
- growth inhibition (GI) (MDA-MB-468): 62.8%
- growth inhibition (GI) (HCT-116): 13.3%
- growth inhibition (GI) (Malme-3M): 15.4%
- growth inhibition (GI) (SNB-75): 26.8%
- growth inhibition (GI) (HCT-15): 18.1%
- growth inhibition (GI) (OVCAR-5): <10%
- growth inhibition (GI) (OVCAR-3): <10%
- growth inhibition (GI) (CCRF-CEM): 18.3%
- growth inhibition (GI) (HCC 2998): 13.3%
- growth inhibition (GI) (OVCAR-8): 15.6%
- growth inhibition (GI) (T47D): 28.8%
- growth inhibition (GI) (HOP-62): 19.7%
- growth inhibition (GI) (UACC-257): <10%
- growth inhibition (GI) (ACHN): <10%
- growth inhibition (GI) (SN12C): 32.9%
- growth inhibition (GI) (OVCAR-4): <10%
- growth inhibition (GI) (KM12): <10%
- growth inhibition (GI) (UO-31): 48.6%
- growth inhibition (GI) (MDA-MB-231): 25.6%
- growth inhibition (GI) [2]: <10%
- growth inhibition (GI) (MCF7): 28%
- growth inhibition (GI) (NCI-H23): 11.2%
- growth inhibition (GI) (SW-620): <10%
- growth inhibition (GI) (SNB-19): 19.7%
- growth inhibition (GI) (RXF 393): 47.4%
- growth inhibition (GI) (HOP-92): 42.2%
- growth inhibition (GI) (SR): <10%
- growth inhibition (GI) (LOX IMVI): 12.8%
- growth inhibition (GI) (SF-295): <10%
- growth inhibition (GI) (SK-MEL-5): 46.1%
- growth inhibition (GI) (IGROV-1): 18.4%
- growth inhibition (GI) (SF-268): 14.2%
- growth inhibition (GI) (A549): <10%
- growth inhibition (GI) (BT-549): 29.1%
- growth inhibition (GI) (MDA-MB-435): 15.4%
